This is an account of results in paper PMC11198769, “Enhancement of transcription efficiency by TAR-Tat system increases the functional expression of human olfactory receptors” (PLOS ONE, 2024).

What all share (assay): hOR assay (GloSensor cAMP luciferase), dose-response
Common to all, as to format: cell-based

The target in one test is T1, OR10C1 (Homo sapiens, UniProt Q96KK4).
T1 construct: Lucy tag (N); expressed in transfected cells; host or cells: Flp-In T-REx-293 cells stably expressing RTP1S, Gαolf and Ric8-b
T1 sequence (Q96KK4 1-312): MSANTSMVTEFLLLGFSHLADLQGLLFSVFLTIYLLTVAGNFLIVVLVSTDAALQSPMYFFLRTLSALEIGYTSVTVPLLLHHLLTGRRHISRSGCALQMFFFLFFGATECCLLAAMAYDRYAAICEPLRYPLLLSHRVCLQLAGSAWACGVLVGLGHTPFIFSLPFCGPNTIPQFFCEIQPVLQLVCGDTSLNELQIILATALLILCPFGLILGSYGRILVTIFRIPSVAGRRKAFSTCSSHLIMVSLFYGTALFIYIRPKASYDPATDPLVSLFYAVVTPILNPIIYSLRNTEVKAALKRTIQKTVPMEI
The settings on record: OR10C1, with or without the TAR-Tat system. The protocol: (§1) Flp-In T-REx-293 cells stably expressing accessory proteins (RTP1S, Gαolf, and Ric8-b) were established using the Flp-In T-REx system. Accessory proteins-expressing cells were maintained in high-glucose Dulbecco’s modified Eagle medium (Sigma-Aldrich) containing 10% fetal bovine serum (Biowest) and 1% antibiotic–antimycotic (Nacalai tesque) at 37°C with 5% CO2.
(§2) The GloSensor™ Technology (Promega) was used for the luciferase assay of the hOR response. As the negative control, cells that were transfected by the pBApo-CMV neo vector and pHEK293 Ultra Expression Vector I were used as mock cells. hOR/pHEK and hOR/pBApo (50 ng/well) were transfected into the accessory proteins-expressing cell line (40000 cells/well) using Lipofectamine 2000 (Thermo Fisher Scientific) (400 nL/well) along with pGlosensor™-22F cAMP biosensor plasmid (Promega) (50 ng/well) in a 96-well plate. At 28 h posttransfection, the cells were washed with an assay buffer (140 mM NaCl, 10 mM HEPES, 5 mM KCl, 1 mM CaCl2・2H2O, 10 mM D-glucose, pH 7.5) and replaced with the assay buffer (50 μL/well) containing 2% GloSensor cAMP substrate and preincubated for 1 h at 25°C. Then, the assay buffer was added (130 μL/well). After 10 min of equilibration, the luminescence was measured (L0). Odorants diluted in 10% DMSO/assay buffer were treated (20 μL/well). After 9 min, the luminescence was measured (L9min). First, all the L9min values were subtracted by the L0 value (ΔL) and divided by the L0 value (ΔL/L0). The concentration range of the odorants was different for each odorant, but the minimum was 0.01 μM and the maximum was 3 mM. For all hORs, luciferase assays with hOR/pBApo and hOR/pHEK were conducted in the same 96-well plate each time, and luminescence was normalized to a maximum value of 100. Dose–response curve images were graphed using the Graph Pad Prism 9 software (Graph Pad Software).

A further test concerns the target T2, OR10A2 (Homo sapiens, UniProt Q9H208).
T2 construct: Lucy tag (N); expressed in transfected cells; host or cells: Flp-In T-REx-293 cells stably expressing RTP1S, Gαolf and Ric8-b
T2 sequence (Q9H208 1-303): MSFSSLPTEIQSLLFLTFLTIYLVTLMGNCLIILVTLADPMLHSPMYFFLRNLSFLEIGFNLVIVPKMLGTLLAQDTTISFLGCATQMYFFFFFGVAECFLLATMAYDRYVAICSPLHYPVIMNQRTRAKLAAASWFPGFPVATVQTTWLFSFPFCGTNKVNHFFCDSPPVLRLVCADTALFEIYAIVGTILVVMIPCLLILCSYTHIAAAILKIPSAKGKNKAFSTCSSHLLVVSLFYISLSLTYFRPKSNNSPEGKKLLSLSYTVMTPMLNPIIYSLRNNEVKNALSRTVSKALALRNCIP
The settings on record: OR10A2, with or without the TAR-Tat system. The procedure: as §1, §2

The next test has as its target T3, OR2M3 (Homo sapiens, UniProt Q8NG83).
T3 construct: Lucy tag (N); expressed in transfected cells; host or cells: Flp-In T-REx-293 cells stably expressing RTP1S, Gαolf and Ric8-b
T3 sequence (Q8NG83 1-312): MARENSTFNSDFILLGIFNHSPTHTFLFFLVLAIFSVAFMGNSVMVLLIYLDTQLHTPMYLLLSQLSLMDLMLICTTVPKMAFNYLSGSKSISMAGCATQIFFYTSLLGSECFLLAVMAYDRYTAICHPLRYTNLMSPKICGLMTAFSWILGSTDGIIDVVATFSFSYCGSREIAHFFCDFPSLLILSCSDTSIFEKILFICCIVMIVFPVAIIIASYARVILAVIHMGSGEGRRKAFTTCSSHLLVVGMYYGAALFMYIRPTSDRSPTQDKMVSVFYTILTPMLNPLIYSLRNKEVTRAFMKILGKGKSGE
The protocol: as §1, §2

For another test, the target named is T4, OR5P3 (Homo sapiens, UniProt Q8WZ94).
T4 construct: Lucy tag (N); FLAG (N); Rho tag (N); expressed in transfected cells; host or cells: Flp-In T-REx-293 cells stably expressing RTP1S, Gαolf and Ric8-b
T4 sequence (Q8WZ94 1-311): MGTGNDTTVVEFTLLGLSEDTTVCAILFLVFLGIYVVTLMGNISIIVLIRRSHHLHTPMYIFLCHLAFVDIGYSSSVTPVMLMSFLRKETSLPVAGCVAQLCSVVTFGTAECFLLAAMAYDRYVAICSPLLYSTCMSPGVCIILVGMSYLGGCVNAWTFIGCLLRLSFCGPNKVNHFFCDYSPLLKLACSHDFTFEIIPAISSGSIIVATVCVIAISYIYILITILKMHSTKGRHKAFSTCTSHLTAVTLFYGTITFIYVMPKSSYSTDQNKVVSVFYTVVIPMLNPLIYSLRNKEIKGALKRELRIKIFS
The settings on record: for EC50: read-out: EC50 of n-hexanal concentration-response relationship. The procedure:
as §1, §2

In another test the target is T5, OR4K5 (Homo sapiens, UniProt Q8NGD3).
T5 construct: Lucy tag (N); FLAG (N); Rho tag (N); expressed in transfected cells; host or cells: Flp-In T-REx-293 cells stably expressing RTP1S, Gαolf and Ric8-b
T5 sequence (Q8NGD3 1-323): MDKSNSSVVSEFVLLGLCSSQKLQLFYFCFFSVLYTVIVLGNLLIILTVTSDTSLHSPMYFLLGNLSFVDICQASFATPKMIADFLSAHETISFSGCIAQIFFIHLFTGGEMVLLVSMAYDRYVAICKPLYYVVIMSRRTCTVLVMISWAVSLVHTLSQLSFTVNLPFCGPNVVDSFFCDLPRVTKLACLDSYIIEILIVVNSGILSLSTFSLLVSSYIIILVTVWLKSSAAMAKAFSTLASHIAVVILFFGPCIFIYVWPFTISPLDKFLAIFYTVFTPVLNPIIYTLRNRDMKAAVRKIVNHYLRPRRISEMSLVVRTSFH
The settings on record: OR4K5, with or without the TAR-Tat system. The procedure:
as §1, §2

Molecules are shown by their SMILES. Like-named read-outs stand apart in the source and are kept apart here.

For `CCCCCC=O` [n-hexanal], the “concentration-dependent response to n-hexanal” value is on record as “no concentration-dependent response” at OR10C1; “no concentration-dependent response” on OR10A2; “Concentration-dependent responses were observed” at OR5P3 (OR5P3, with and without the TAR-Tat system); “no concentration-dependent response” on OR4K5. In addition, the “mode of action on OR2M3” value on OR2M3 (OR2M3/pHEK plasmid) is given as “inverse agonist”. In addition, the “suppression of the active response of OR2M3 to agonist” value at OR2M3 (coadministered with 500 μM 3-mercapto-2-methyl-1-pentanol, OR2M3/pHEK plasmid) is recorded as “suppressed in an n-hexanal concentration-dependent manner”. In addition, the “inhibitory effect on the constitutive activity of OR2M3 (luminescence values)” value on OR2M3 (with and without the TAR-Tat system) is listed as “decreased in an n-hexanal concentration-dependent manner only in the case with the TAR-Tat system”. The results for the EC50 at OR5P3 (OR5P3/pBApo (without TAR-Tat system)) and on OR5P3 (OR5P3/pHEK (with TAR-Tat system)) were 191 µM and 672 µM, respectively. In addition, the “increase of maximum value of dose-response curve with the TAR-Tat system” value at OR5P3 (OR5P3/pHEK versus OR5P3/pBApo) came out at 4.1 fold.
